Laboratory results from article PMC8279409, “Novel Mixed NOP/Opioid Receptor Peptide Agonists” (Journal of Medicinal Chemistry, 2021).
Like-named read-outs stand apart in the source and are kept apart here. Where a SMILES comes first, the peptide text is derived from it. Where no end group is shown, it is not given here. [ ]: non-standard residue; d: D form. Dip = N[C@H](C(=O)O)C(c1ccccc1)c1ccccc1; 2Nal = N[C@@H](Cc1ccc2ccccc2c1)C(=O)O; Nle = CCCC[C@H](N)C(=O)O; Abu = CC[C@H](N)C(=O)O

Tests used:
[1] = biological target: T1, human NOP receptor (Homo sapiens, UniProt P41146); assay: Calcium mobilization, NOP receptor; type: cell-based; details: for NOP pEC50 (CL95%): CHO cells coexpressing human NOP and Gαqi5, Fluo-4 AM, 37 °C, mean of at least three experiments in duplicate, CL95% in brackets; for NOP/mu CR (concentration ratio): calcium mobilization, NOP versus mu; for Emax: mean ± SEM of at least three experiments in duplicate, SEM
T1 construct: expressed in transfected cells; host or cells: CHO cells stably coexpressing the receptor and chimeric Gαqi5
Experimental: CHO cells stably coexpressing the human NOP or kappa or the mu receptor and the C-terminally modified Gαqi5 and CHO cells coexpressing the delta receptor and the GαqG66Di5 protein were generated and cultured as described previously.[45],[46] Cells were maintained in Dulbecco’s modified Eagle’s medium/nutrient mixture F-12 (DEMEM/F-12) supplemented with 10% FBS, 100 U/mL penicillin and 100 μg/mL streptomycin, 100 μg/mL hygromicin B, and 200 μg/mL G418 and cultured at 37 °C in 5% CO2 humidified air. Cells were seeded at a density of 50,000 cells/well into 96-well black, clear-bottom plates. The following day, the cells were incubated with Hanks’ balanced salt solution (HBSS) supplemented with 2.5 mM probenecid, 3 μM of the calcium-sensitive fluorescent dye Fluo-4 AM, and 0.01% pluronic acid for 30 min at 37 °C. After that time, the loading solution was aspirated and 100 μL/well of HBSS supplemented with 20 mM HEPES, 2.5 mM probenecid, and 500 μM brilliant black was added. Serial dilutions were carried out in HBSS/HEPES (20 mM) buffer (containing 0.02% BSA fraction V). After placing both plates (cell culture and master plate) into the fluorometric imaging plate reader FlexStation II (Molecular Devices, Sunnyvale, CA), fluorescence changes were measured. On-line additions were carried out in a volume of 50 μL/well. To facilitate drug diffusion into the wells, the present studies were performed at 37 °C. Maximum change in fluorescence, expressed as percent over the baseline fluorescence, was used to determine agonist response.
The pharmacological terminology adopted in this paper is consistent with IUPHAR recommendations.[59] All data are expressed as the mean ± standard error of the mean (SEM) of at least three experiments performed in duplicate. […] Concentration-response curves to agonists were fitted to the classical four-parameter logistic nonlinear regression model:
Effect = Baseline + (Emax – Baseline)/(1 + 10^(LogEC50 – Log[compound]) × Hillslope). Curve fitting was performed using PRISM 6.0 (GraphPad Software Inc., San Diego).

[2] = biological target: T2, human mu receptor (Homo sapiens, UniProt P35372); assay: Calcium mobilization, mu opioid receptor; type: cell-based; details: for mu pEC50 (CL95%): CHO cells coexpressing human mu receptor and Gαqi5, Fluo-4 AM, 37 °C, mean of at least three experiments in duplicate, CL95% in brackets; for Emax / activation at 10 µM: percent over the baseline fluorescence, SEM; for Emax: mean ± SEM of at least three experiments in duplicate; for pEC50_mu: molecular formula strings CSV, repeats calcium mobilization values of Tables 1-3; for activation at 10 µM: mean ± SEM
T2 construct: expressed in transfected cells; host or cells: CHO cells stably coexpressing the receptor and chimeric Gαqi5

[3] = read-out: NOP Emax ± S.E.M., Table 1 series, maximum change in fluorescence as percent over the baseline fluorescence
[4] = read-out: mu effect at 10 μM (crc incomplete), Table 1 series
[5] = read-out: NOP Emax ± S.E.M., Table 2 series, percent over the baseline fluorescence
[6] = read-out: mu effect at 10 μM (crc incomplete), Table 2 series
[7] = read-out: mu Emax ± S.E.M., Table 2 series

T1 sequence (P41146 whole entry): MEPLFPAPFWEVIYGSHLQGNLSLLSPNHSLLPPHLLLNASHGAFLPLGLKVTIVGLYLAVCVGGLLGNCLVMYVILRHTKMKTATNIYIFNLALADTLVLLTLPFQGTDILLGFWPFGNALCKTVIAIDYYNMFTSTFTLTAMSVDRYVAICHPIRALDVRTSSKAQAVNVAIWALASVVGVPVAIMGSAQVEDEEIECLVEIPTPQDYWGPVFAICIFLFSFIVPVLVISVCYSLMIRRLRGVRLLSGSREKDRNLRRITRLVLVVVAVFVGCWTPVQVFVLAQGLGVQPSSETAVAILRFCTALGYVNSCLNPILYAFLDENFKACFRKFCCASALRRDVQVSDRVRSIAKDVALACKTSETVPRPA
T2 sequence (P35372 whole entry): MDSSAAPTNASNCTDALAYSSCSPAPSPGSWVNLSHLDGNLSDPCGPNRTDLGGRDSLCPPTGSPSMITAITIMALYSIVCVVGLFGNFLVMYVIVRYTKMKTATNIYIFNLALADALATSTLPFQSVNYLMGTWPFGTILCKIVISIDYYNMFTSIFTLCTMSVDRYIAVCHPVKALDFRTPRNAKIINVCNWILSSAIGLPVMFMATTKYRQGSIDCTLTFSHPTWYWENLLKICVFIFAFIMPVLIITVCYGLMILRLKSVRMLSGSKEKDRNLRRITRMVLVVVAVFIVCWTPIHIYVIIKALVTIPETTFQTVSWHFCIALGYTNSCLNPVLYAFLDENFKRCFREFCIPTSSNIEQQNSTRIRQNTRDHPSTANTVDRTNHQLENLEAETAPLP

| Compound | NOP pEC50 (CL95%) ([1]; Table 1 series, FlexStation II) | NOP/mu CR (concentration ratio) ([1]; Table 1 series) | Emax [1, 3] [%] | mu pEC50 (CL95%) ([2]; Table 1 series) | Emax ([2]; read-out: mu Emax ± S.E.M, Table 1 series) [%] | pEC50_mu [2] | activation at 10 µM [2, 4] [%] | NOP pEC50 (CL95%) ([1]; Table 2 series) | NOP/mu CR (concentration ratio) ([1]; Table 2 series) | Emax [1, 5] [%] | mu pEC50 (CL95%) ([2]; Table 2 series) | activation at 10 µM [2, 6] [%] | Emax [2, 7] [%] |
| --- | --- | --- | --- | --- | --- | --- | --- | --- | --- | --- | --- | --- | --- |
| CCCC[C@H](NC(=O)[C@H](Cc1ccccc1)NC(=O)CNC(=O)CNC(=O)[C@@H](N)Cc1ccc(O)cc1)C(=O)NCC(=O)N[C@@H](C)C(=O)N[C@@H](CCCNC(=N)N)C(=O)N[C@@H](CCCCN)C(=O)N[C@@H](CO)C(=O)N[C@@H](C)C(=O)N[C@@H](CCCNC(=N)N)C(=O)N[C@@H](CCCCN)C(N)=O [Compound 12, [Tyr^1,Nle^5]N/OFQ(1-13)-NH2] (H-YGGF[Nle]GARKSARK-NH2) | 8.77 (8.45–9.09) | 0.01 | 375 ± 9 | 6.74 (6.15–7.33) | 323 ± 4 |  |  |  |  |  |  |  |  |
| CC[C@H](NC(=O)[C@H](Cc1ccccc1)NC(=O)CNC(=O)CNC(=O)[C@@H](N)Cc1ccc(O)cc1)C(=O)NCC(=O)N[C@@H](C)C(=O)N[C@@H](CCCNC(=N)N)C(=O)N[C@@H](CCCCN)C(=O)N[C@@H](CO)C(=O)N[C@@H](C)C(=O)N[C@@H](CCCNC(=N)N)C(=O)N[C@@H](CCCCN)C(N)=O [Compound 7, [Tyr^1,Abu^5]N/OFQ(1-13)-NH2] (H-YGGF[Abu]GARKSARK-NH2) | 8.15 (7.61–8.69) | 0.007 | 366 ± 20 | crc incomplete; 10 μM: 213 ± 37 |  | crc incomplete | 213 ± 37 |  |  |  |  |  |  |
| YGGFVGARKSARK-NH2 [Compound 5, [Tyr^1,Val^5]N/OFQ(1-13)-NH2] | 8.70 (8.53–8.87) | 0.002 | 334 ± 19 | crc incomplete; 10 μM: 254 ± 19 |  | crc incomplete | 254 ± 19 |  |  |  |  |  |  |
| YGGFWGARKSARK-NH2 [Compound 17, [Tyr^1,Trp^5]N/OFQ(1-13)-NH2] |  |  |  |  |  | crc incomplete |  | 7.27 (7.19–7.35) | 0.07 | 288 ± 28 | crc incomplete; 10 μM: 193 ± 31 | 193 ± 31 |  |
| C[C@H](NC(=O)CNC(=O)[C@@H](NC(=O)[C@H](Cc1ccccc1)NC(=O)CNC(=O)CNC(=O)[C@@H](N)Cc1ccc(O)cc1)C(c1ccccc1)c1ccccc1)C(=O)N[C@@H](CCCNC(=N)N)C(=O)N[C@@H](CCCCN)C(=O)N[C@@H](CO)C(=O)N[C@@H](C)C(=O)N[C@@H](CCCNC(=N)N)C(=O)N[C@@H](CCCCN)C(N)=O [Compound 23, [Tyr^1,Dip^5]N/OFQ(1-13)-NH2] (H-YGGF[Dip]GARKSARK-NH2) |  |  |  |  |  |  |  | 6.61 (6.13–7.09) | 1.48 | 240 ± 26 | 6.78 (6.28–7.27) |  | 331 ± 32 |
| YGGFFGARKSARK-NH2 [Compound 15, [Tyr^1,Phe^5]N/OFQ(1-13)-NH2] |  |  |  |  |  |  |  | 7.72 (7.56–7.87) | 0.05 | 242 ± 11 | 6.41 (5.85–6.97) |  | 315 ± 32 |
| C[C@H](NC(=O)CNC(=O)[C@H](Cc1ccc2ccccc2c1)NC(=O)[C@H](Cc1ccccc1)NC(=O)CNC(=O)CNC(=O)[C@@H](N)Cc1ccc(O)cc1)C(=O)N[C@@H](CCCNC(=N)N)C(=O)N[C@@H](CCCCN)C(=O)N[C@@H](CO)C(=O)N[C@@H](C)C(=O)N[C@@H](CCCNC(=N)N)C(=O)N[C@@H](CCCCN)C(N)=O [Compound 26, [Tyr^1,2Nal^5]N/OFQ(1-13)-NH2] (H-YGGF[2Nal]GARKSARK-NH2) |  |  |  |  |  | crc incomplete |  | 6.82 (6.60–7.04) | 0.19 | 266 ± 15 | crc incomplete; 10 μM: 244 ± 10 | 244 ± 10 |  |
